Measured values as given in PubChem BioAssay (NCI).
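A five-concentration, 48-hour dose response in 96-well plates underlies each endpoint, interpolated linearly between surrounding concentrations. TGI: total growth inhibition.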

Legend:
Experiment in all cases: NCI tumour cell line growth inhibition, 48 h
NCI-H460 lung = test system: NCI-H460 lung
COLO 205 colon = test system: COLO 205 colon
HOP-62 NSCLC = test system: HOP-62 NSCLC
A549 NSCLC = test system: A549 NSCLC
IGROV1 ovarian = test system: IGROV1 ovarian
HT29 colon = test system: HT29 colon
OVCAR-3 ovarian = test system: OVCAR-3 ovarian
NCI/ADR-RES ovarian = test system: NCI/ADR-RES ovarian
SN12C renal = test system: SN12C renal
U251 CNS = test system: U251 CNS
M19-MEL melanoma = test system: M19-MEL melanoma
SF-539 CNS = test system: SF-539 CNS
NCI-H226 lung = test system: NCI-H226 lung
SF-295 CNS = test system: SF-295 CNS
DMS 273 small cell lung = test system: DMS 273 small cell lung
SK-MEL-5 melanoma = test system: SK-MEL-5 melanoma
OVCAR-5 ovarian = test system: OVCAR-5 ovarian
CCRF-CEM leukemia = test system: CCRF-CEM leukemia
SNB-78 CNS = test system: SNB-78 CNS
LOX IMVI melanoma = test system: LOX IMVI melanoma
K-562 leukemia = test system: K-562 leukemia
EKVX NSCLC = test system: EKVX NSCLC
UACC-257 melanoma = test system: UACC-257 melanoma
SK-MEL-28 melanoma = test system: SK-MEL-28 melanoma
HOP-18 NSCLC = test system: HOP-18 NSCLC
P388/ADR leukemia = test system: P388/ADR leukemia
HOP-92 NSCLC = test system: HOP-92 NSCLC
SNB-19 CNS = test system: SNB-19 CNS
NCI-H23 lung = test system: NCI-H23 lung
SW-620 colon = test system: SW-620 colon
SN12K1 renal = test system: SN12K1 renal
HL-60(TB) leukemia = test system: HL-60(TB) leukemia
HCT-116 colon = test system: HCT-116 colon
MCF7 breast = test system: MCF7 breast
RXF 393 renal = test system: RXF 393 renal
P388 leukemia = test system: P388 leukemia
SNB-75 CNS = test system: SNB-75 CNS
DLD-1 colon = test system: DLD-1 colon
KM12 colon = test system: KM12 colon
SK-OV-3 ovarian = test system: SK-OV-3 ovarian
RPMI-8226 leukemia = test system: RPMI-8226 leukemia
XF 498 CNS = test system: XF 498 CNS
OVCAR-4 ovarian = test system: OVCAR-4 ovarian
SK-MEL-2 melanoma = test system: SK-MEL-2 melanoma
DMS 114 small cell lung = test system: DMS 114 small cell lung
NCI-H522 lung = test system: NCI-H522 lung
UO-31 renal = test system: UO-31 renal
KM20L2 colon = test system: KM20L2 colon
MOLT-4 leukemia = test system: MOLT-4 leukemia
CAKI-1 renal = test system: CAKI-1 renal
A498 renal = test system: A498 renal
SF-268 CNS = test system: SF-268 CNS
OVCAR-8 ovarian = test system: OVCAR-8 ovarian
HCT-15 colon = test system: HCT-15 colon
UACC-62 melanoma = test system: UACC-62 melanoma

N/C(=N\N=C\c1ccc2c(c1)OCCO2)NO
TGI (NCI-H460 lung): > 100 µM | TGI (COLO 205 colon): 38.5 µM | TGI (HOP-62 NSCLC): 93.2 µM | TGI (A549 NSCLC): > 82.9 µM | TGI (IGROV1 ovarian): > 100 µM | TGI (HT29 colon): 33.6 µM | TGI (OVCAR-3 ovarian): 16.2 µM | TGI (NCI/ADR-RES ovarian): > 55.1 µM | TGI (SN12C renal): > 100 µM | TGI (U251 CNS): > 100 µM | TGI (M19-MEL melanoma): 98.6 µM | TGI (SF-539 CNS): > 81.1 µM | TGI (NCI-H226 lung): 27.5 µM | TGI (SF-295 CNS): 57.1 µM | TGI (DMS 273 small cell lung): 57.6 µM | TGI (SK-MEL-5 melanoma): 22.4 µM | TGI (OVCAR-5 ovarian): > 40.8 µM | TGI (CCRF-CEM leukemia): > 100 µM | TGI (SNB-78 CNS): > 100 µM | TGI (LOX IMVI melanoma): > 72.7 µM | TGI (K-562 leukemia): > 72.4 µM | TGI (EKVX NSCLC): > 100 µM | TGI (UACC-257 melanoma): > 61.2 µM | TGI (SK-MEL-28 melanoma): > 100 µM | TGI (HOP-18 NSCLC): > 100 µM | TGI (P388/ADR leukemia): 40.5 µM | TGI (HOP-92 NSCLC): 80.6 µM | TGI (SNB-19 CNS): > 32.6 µM | TGI (NCI-H23 lung): > 100 µM | TGI (SW-620 colon): > 100 µM | TGI (SN12K1 renal): > 57.7 µM | TGI (HL-60(TB) leukemia): > 63.2 µM | TGI (HCT-116 colon): > 100 µM | TGI (MCF7 breast): > 82.4 µM | TGI (RXF 393 renal): > 100 µM | TGI (P388 leukemia): 47.3 µM | TGI (SNB-75 CNS): > 100 µM | TGI (DLD-1 colon): > 100 µM | TGI (KM12 colon): > 100 µM | TGI (SK-OV-3 ovarian): > 100 µM | TGI (RPMI-8226 leukemia): > 64.4 µM | TGI (XF 498 CNS): > 30.6 µM | TGI (OVCAR-4 ovarian): > 100 µM | TGI (SK-MEL-2 melanoma): 70.4 µM | TGI (DMS 114 small cell lung): > 77.6 µM | TGI (NCI-H522 lung): 42.1 µM | TGI (UO-31 renal): > 53 µM | TGI (KM20L2 colon): > 52 µM | TGI (MOLT-4 leukemia): > 100 µM | TGI (CAKI-1 renal): > 100 µM | TGI (A498 renal): > 100 µM | TGI (SF-268 CNS): > 49.1 µM | TGI (OVCAR-8 ovarian): > 76.6 µM | TGI (HCT-15 colon): > 100 µM | TGI (UACC-62 melanoma): > 34.4 µM
